Where two headings read alike, the source gives them in different places.
Key:
HRV-14 = assay: Antirhinoviral HI-HeLa Cell Culture Assay (Cell Protection Assay, XTT dye reduction); assay type: cell-based, human rhinovirus (HRV) serotype-14; settings: HI-HeLa cells infected with HRV-14, m.o.i. 0.13; two days; XTT; read-out: EC50
Procedure: In the Cell Protection Assay, the ability of compounds to protect cells against HRV infection was measured by the XTT dye reduction method. This method is described in Weislow, O. S., R. Kiser, D. L. Fine, J. Bader, R. H. Shoemaker, and M. R. Boyd, J. Natl. Cancer Inst. 1989, 81, 577-586, which is incorporated herein by reference.
(§1) HI-HeLa cells were infected with HRV-14 at a multiplicity of infection (m.o.i.) of 0.13 (virus particles/cell) or mock-infected with medium only. Infected or mock-infected cells were resuspended at 8×10^5 cells per mL and incubated with appropriate concentration of compounds of formulas I and II. Two days later, XTT/PMS was added to test plates and the amount of formazan produced was quantified spectrophotometrically at 450/650 nm. […] The therapeutic index (TI) was calculated by dividing the CC50 by the EC50.
(§2) All strains of human rhinovirus (HRV) for use in this assay were purchased from American Type Culture Collection (ATCC), except for HRV serotype-14, which was produced from the infectious cDNA clone, constructed and supplied to us by Dr. Roland Rueckert at the Institue for Molecular Virology, University of Wisconsin, Madison, Wisc. HRV stocks were propagated, and antiviral assays were perforemd in HI-HeLa cells (ATCC). Cells were grwon in Minimal Essential Medium, available from Life Technologies, with 10% fetal bovine serum.
The compounds were tested against control compounds WIN 51711, WIN 52084, and WIN 54954, all obtained from Sterling-Winthrop Pharmaceuticals, and control compound Pirodavir, obtained from Janssen Pharmaceuticals.

[1] = biological target: T1, Recombinant Rhinovirus 3C protease (RVP) serotype-14 (Human rhinovirus 14, UniProt P03303); assay: Inhibition of Rhinovirus Protease (fluorescence resonance energy transfer assay), serotype 14; assay type: biochemical, human rhinovirus (HRV); settings: for INHIB (percent inhibition): 10 minute preincubation with 50 nM RVP; for kobs/I: progress curves in enzyme start experiments
T1 construct: Recombinant Rhinovirus 3C proteases from serotypes 14, 16, 2 or 89; made in house
T1 sequence (P03303 1538-1719): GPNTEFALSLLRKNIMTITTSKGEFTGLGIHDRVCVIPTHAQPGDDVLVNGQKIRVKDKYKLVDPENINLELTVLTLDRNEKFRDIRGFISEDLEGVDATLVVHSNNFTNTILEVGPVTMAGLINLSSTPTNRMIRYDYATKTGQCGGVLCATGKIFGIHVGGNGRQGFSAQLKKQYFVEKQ
Procedure: Stock solution (50 mM, in DMSO) of various compounds were prepared; dilutions were in the same solvent. […] Assays contained 2% DMSO, 50 mM tris pH 7.6, 1 mM EDTA, a compound at the indicated concentrations, approximately 1 μM substrate, and 50-100 nM protease. […] The kobs/I values were obtained from reactions initiated by addition of enzyme rather than substrate. RVP activity is measured in the fluorescence resonance energy transfer assay. […] In the uncleaved peptide, the EDANS fluorescence was quenched by the proximal DABCYL moeity. When the peptide was cleaved, the quenching was relieved, and activity was measured as an increase in fluorescence signal.
In the above table, all data is RVP serotype-14 unless otherwise noted in parentheses. All strains of human rhinovirus (HRV) were purchased from American Type Culture Collection (ATCC), except for serotype 14, which was produced from the infectious cDNA clone constructed and supplied to us by Dr. Roland Rueckert at the Institute for Molecular Virology, University of Wisconsin, Madison, Wisc. […] The data in the column designated kobs/I was measured from progress curves in enzyme start experiments.

HI-HeLa cells = assay: Cytotoxicity in mock-infected HI-HeLa cells (antirhinoviral assay, XTT); assay type: cell-based
Procedure: as §1, §2

[2] = RVP serotype-14, 10 μM compound
[3] = mock-infected HI-HeLa cells, two days, XTT, read-out: CC50
[4] = RVP serotype-14, 10 minute preincubation, substrate start, read-out: INHIB (Ki)

| Compound | EC50 (HRV-14) [µM] | kobs/I ([1]; RVP serotype-14) | CC50 (HI-HeLa cells) [µM] | also measured |
| --- | --- | --- | --- | --- |
| CCOC(=O)/C=C/[C@H](CCC(N)=O)NC(=O)[C@H](Cc1ccccc1)NS(=O)(=O)c1ccccc1 [Compound 34, Ethyl-3-[N-(Phenylsulfonyl)-L-Phe-L-Gln]-E-Propenoate] | 100 | 34 M⁻¹ s⁻¹ |  | INHIB (percent inhibition) [1, 2]: 10(10) percent; CC50 (HI-HeLa cells; [3]): > 100 µM |
| CCOC(=O)/C=C/[C@H](CCC(N)=O)NC(=O)[C@H](Cc1ccccc1)NC(=O)OCc1ccccc1 [Compound 30, Ethyl-3-(CBZ-L-Phe-L-Gln)-E-Propenoate] | 5.6 | 430 M⁻¹ s⁻¹ | 100 | Ki [1, 4]: 373 µM |
| CC(=O)N1CC/C(=C\[C@H](CCC(N)=O)NC(=O)[C@H](Cc2ccccc2)NC(=O)[C@H](CC(C)C)NC(=O)OCc2ccccc2)C1=O [Compound 164] | 0.71 | 155,500 M-1 sec-1 | > 100 |  |
| CCOC(=O)/C=C/[C@H](CCC(N)=O)NC(=O)[C@H](Cc1ccccc1)NC(=O)[C@H](CC(C)C)NC(=O)c1ccc(C(=O)NC)cc1 [Compound 129] | > 320 | 230,000 M-1 sec-1 | > 320 |  |
| CCOC(=O)/C=C/[C@H](CCC(N)=O)NC(=O)[C@H](C)NC(=O)[C@H](CC(C)C)NC(=O)OCc1ccccc1 [Compound 109] | 20 | 1,348 M-1 sec-1 | > 320 |  |
| CC(C)C[C@H](NC(=O)OCc1ccccc1)C(=O)N[C@@H](Cc1ccccc1)C(=O)N[C@H](/C=C/C(=O)N(C)c1ccccc1)CCC(N)=O [Compound 60] | 158 | 575 M⁻¹ s⁻¹ | > 320 | Ki [1, 4]: 5 µM |
| CCOC(=O)C=CC(CCC(N)=O)NC(=O)C(Cc1ccccc1)NC(=O)C(NC(=O)OCc1ccccc1)c1ccccc1 (stereo not drawn) [Compound 71] | 14.1 | 20,650 M-1 sec-1 | > 320 |  |
| CC(C)CC(NC(=O)OCc1ccccc1)C(=O)NC(Cc1ccccc1)C(=O)NC(C=CC(=O)N1CCC(O)C1)CCC(N)=O (stereo not drawn) [Compound 39] | > 320 | 1,200 M-1 sec-1 | > 320 |  |
| CCOC(=O)/C=C/[C@H](CCC(N)=O)NC(=O)[C@H](Cc1ccccc1)NS(=O)(=O)Cc1ccccc1 [Compound 32, Ethyl-3-[N-(Benzylsulfonyl)-L-Phe-L-Gln]-E-Propenoate] | 10 | 280 M⁻¹ s⁻¹ | > 100 |  |
| CCOC(=O)/C=C/[C@H](CCC(N)=O)NC(=O)[C@H](Cc1ccccc1)NS(=O)(=O)CC [Compound 33, Ethyl-3-[N-(Ethylsulfonyl)-L-Phe-L-Gln]-E-Propenoate] |  | 33 M⁻¹ s⁻¹ | > 100 | INHIB (percent inhibition) [1, 2]: 24(10) percent |
| CC(C)C[C@H](NC(=O)OCc1ccccc1)C(=O)N[C@@H](Cc1ccccc1)C(=O)N[C@H](/C=C/[N+](=O)[O-])CCC(N)=O [Compound 125] | > 100 | >500,000 M-1 sec-1 | 100 |  |
| CCNC(=O)/C=C/[C@H](CCC(N)=O)NC(=O)[C@H](Cc1ccccc1)NC(=O)[C@H](CC(C)C)NC(=O)OCc1ccccc1 [Compound 6, N-Ethyl-3-(CBZ-L-Leu-L-Phe-L-Gln)-E-Propenamide] | > 320 | 350 M⁻¹ s⁻¹ | > 320 | Ki [1, 4]: 32 µM |
| CCOC(=O)/C=C/[C@H](CCC(N)=O)NC(=O)[C@H](CC)NC(=O)[C@H](CC(C)C)NC(=O)OCc1ccccc1 [Compound 108] | 6 | 4,694 M-1 sec-1 | > 320 |  |
| Cc1cc(CCCCCCCOc2ccc(C3=NCCO3)cc2)on1 [WIN 51711, reference compound] | 0.78 |  |  | CC50 (HI-HeLa cells; [3]): > 60 µM |
| CC(C)C[C@H](NC(=O)OCc1ccccc1)C(=O)N[C@@H](Cc1ccccc1)C(=O)N[C@H](/C=C/C(=O)c1ccco1)CCC(N)=O [Compound 49] | 2.4 | 460,000 M-1 sec-1 | 19.1 |  |
| CC(C)C[C@H](NC(=O)OCc1ccccc1)C(=O)N[C@@H](Cc1ccccc1)C(=O)NC(/C=C/C#N)CCC(N)=O (mixture of isomers) [Compound 14, 3-(CBZ-L-Leu-L-Phe-DL-Gln)-E-Propenonitrile] | 17.8 |  | 500 |  |
| CC(C)C[C@H](NC(=O)OCc1ccccc1)C(=O)N[C@@H](Cc1ccccc1)C(=O)N[C@H](/C=C/c1ccno1)CCC(N)=O [Compound 150] | > 320 | 573 M⁻¹ s⁻¹ |  | CC50 (HI-HeLa cells; [3]): > 320 µM |
| CCOC(=O)/C=C/[C@H](CCC(N)=O)NC(=O)[C@H](CC(C)C)NC(=O)[C@H](CC(C)C)NC(=O)OCc1ccccc1 [Compound 141] | 5.4 | 2,309 M-1 sec-1 | > 320 |  |
| Cc1cc(CCCCCCCOc2ccc(C3=N[C@@H](C)CO3)cc2)on1 [WIN 52084, reference compound] | 0.07 |  |  | CC50 (HI-HeLa cells; [3]): > 10 µM |
| CCOC(=O)/C=C/[C@H](CCC(N)=O)NC(=O)[C@H](Cc1ccc(C)cc1)NC(=O)[C@@H](NC(=O)SC1CCCC1)C(C)(C)C [Compound 174, Ethyl-3-[Cyclopentylthiocarbonyl-L-α-(t-Butyl-Gly)-L-(4-Me-Phe)-L-Gln]-E-Propenoate] | 0.056 |  |  | CC50 (HI-HeLa cells; [3]): > 100 µM |
| Cc1ccc(CC(NC(=O)C(NC(=O)SC2CCCC2)C(C)(C)C)C(=O)NC(C=CC(=O)OCc2ccccc2)CCC(N)=O)cc1 (stereo not drawn) [Compound 186] |  | 950,000 M-1 sec-1 |  |  |
| CCOC(=O)/C(F)=C\[C@H](CCC#N)NC(=O)[C@H](Cc1ccccc1)NC(=O)[C@H](CC(C)C)NC(=O)OCc1ccccc1 [Compound 1, Ethyl-2-Fluoro-3-[CBZ-L-Leu-L-Phe-L-(Cyanomethyl)-Ala]-E-Propenoate] |  |  |  | INHIB (percent inhibition) ([1]; RVP serotype-14): 77 (50) percent |
| CCOP(=O)(/C=C/[C@H](CCC(N)=O)NC(=O)[C@H](Cc1ccccc1)NC(=O)[C@H](CC(C)C)NC(=O)OCc1ccccc1)OCC [Compound 20, Diethyl-[2-(CBZ-L-Leu-L-Phe-L-Gln)-E-Vinyl] Phosphonate] | > 320 |  |  | CC50 (HI-HeLa cells; [3]): > 320 µM |
| C/C(=C\[C@H](CCC(N)=O)NC(=O)[C@H](Cc1ccccc1)NC(=O)[C@H](CC(C)C)NC(=O)OCc1ccccc1)C(=O)O [Compound 144] | 104 |  | > 320 |  |
| CCOC(=O)/C=C/[C@H](CCC(N)=O)NC(=O)[C@H](Cc1ccc(C)cc1)NC(=O)[C@@H](NC(=O)OC1CCCC1)C(C)(C)C [Compound 190] |  | 29,230 M-1 sec-1 |  |  |
| CC(C)C[C@H](NC(=O)OCc1ccccc1)C(=O)N[C@@H](Cc1ccccc1)C(=O)N[C@H](/C=C/CSc1ccccn1)CCC(N)=O [Compound 75] | 5 |  | > 100 |  |
| COCCOC(=O)/C=C/[C@H](CCC(N)=O)NC(=O)[C@H](Cc1ccc(C)cc1)NC(=O)[C@@H](NC(=O)SC1CCCC1)C(C)(C)C [Compound 188] |  |  |  | Ki [1]: 0.16 µM; kinact/KI ([1]; pH 7.6, read-out: kobs/I): 580000 M⁻¹ s⁻¹ |
| CC(=O)N1CC/C(=C\[C@H](CCC(N)=O)NC(=O)[C@H](Cc2ccc(F)cc2)NC(=O)[C@@H](NC(=O)SC2CCCC2)C(C)(C)C)C1=O [Compound 189] |  | 386,000 M-1 sec-1 |  |  |
